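Growth conditions: 96-well plates. Treatment: test compound, 48 hours, 5 concentrations. Analysis: linear interpolation between bracketing concentrations; unreached endpoints set to highest concentration. GI50 is the concentration that inhibits growth by half.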 Calls of active or inactive are those of the source. Rule as the data show it: active = GI50 up to about 1.1 µM and inactive = higher.
Experiments:
Experiment in all cases: NCI-60 cell line screen, 48 h
[1] = test system: HOP-18
[2] = test system: SF-295
[3] = test system: M19-MEL
[4] = test system: HOP-92
[5] = test system: NCI-H226
[6] = test system: M14
[7] = test system: NCI-H460
[8] = test system: KM12
[9] = test system: XF498
[10] = test system: TK-10
[11] = test system: SNB-75
[12] = test system: NCI-H522
[13] = test system: UACC-62
[14] = test system: U-251
[15] = test system: SF-268
[16] = test system: UO-31
[17] = test system: 786-0
[18] = test system: SK-OV-3
[19] = test system: DU-145
[20] = test system: LXFL 529
[21] = test system: KM-20L2
[22] = test system: COLO 205
[23] = test system: A498
[24] = test system: HCC 2998
[25] = test system: SNB-19
[26] = test system: MOLT-4
[27] = test system: K562
[28] = test system: DLD-1
[29] = test system: OVCAR-5
[30] = test system: RXF 631
[31] = test system: IGROV-1
[32] = test system: CAKI-1
[33] = test system: A549
[34] = test system: RPMI-8226
[35] = test system: SK-MEL-5
[36] = test system: SK-MEL-2
[37] = test system: CCRF-CEM
[38] = test system: ACHN
[39] = test system: HT-29
[40] = test system: OVCAR-4
[41] = test system: Malme-3M
[42] = test system: RXF 393
[43] = test system: SR
[44] = test system: SW-620
[45] = test system: NCI-H23
[46] = test system: HL-60
[47] = test system: OVCAR-3
[48] = test system: LOX IMVI
[49] = test system: SF-539
[50] = test system: SK-MEL-28
[51] = test system: OVCAR-8
[52] = test system: UACC-257
[53] = test system: HCT-116
[54] = test system: SN12C
[55] = test system: HCT-15
[56] = test system: EKVX
[57] = test system: HOP-62
[58] = test system: DMS-273
[59] = test system: SNB-78

Measured: GI50

CCOC(=O)C=C1CCC2(CC1)OCCO2
inactive: [1] > 100 µM | [2] > 100 µM | [3] > 100 µM | [4] > 100 µM | [5] > 100 µM | [6] > 100 µM | [7] > 100 µM | [8] > 100 µM | [9] > 100 µM | [10] > 100 µM | [11] > 100 µM | [12] > 100 µM | [13] > 100 µM | [14] > 100 µM | [15] > 100 µM | [16] > 100 µM | [17] > 100 µM | [18] > 100 µM | [19] > 100 µM | [20] > 100 µM | [21] > 100 µM | [22] > 100 µM | [23] > 100 µM | [24] > 100 µM | [25] > 100 µM | [26] > 100 µM | [27] > 100 µM | [28] > 100 µM | [29] > 100 µM | [30] > 100 µM | [31] > 100 µM | [32] > 100 µM | [33] > 100 µM | [34] > 100 µM | [35] > 100 µM | [36] > 100 µM | [37] > 100 µM | [38] > 100 µM | [39] > 100 µM | [40] > 100 µM | [41] > 100 µM | [42] > 100 µM | [43] > 100 µM | [44] > 100 µM | [45] > 100 µM | [46] > 100 µM | [47] > 100 µM | [48] > 100 µM | [49] > 100 µM | [50] > 100 µM | [51] > 100 µM | [52] > 100 µM | [53] > 100 µM | [54] > 100 µM
> 100 µM: [55]

O=C(Cc1nc2ccc(C(=O)c3ccccc3)cc2nc1O)C(=O)Nc1ccc(C(F)(F)F)cc1[N+](=O)[O-]
inactive: [1] 65.2 µM | [2] 94.2 µM | [56] 11.7 µM | [3] 58.1 µM | [4] 35.3 µM | [5] 87.1 µM | [6] > 100 µM | [7] 57.8 µM | [8] 59 µM | [9] 27.5 µM | [10] > 100 µM | [11] 45.9 µM | [57] 91.8 µM | [12] 31.3 µM | [13] 38.9 µM | [14] > 100 µM | [15] 65 µM | [16] 61.2 µM | [17] > 100 µM | [58] 99.1 µM | [18] > 100 µM | [20] 35.8 µM | [21] 56.4 µM | [22] 45 µM | [23] 90.4 µM | [24] > 100 µM | [25] 94.8 µM | [26] 22.8 µM | [27] 27.6 µM | [28] > 100 µM | [29] > 100 µM | [30] 96.6 µM | [59] 81.1 µM | [31] > 100 µM | [32] 30.8 µM | [33] > 100 µM | [34] 42.5 µM | [35] 39.7 µM | [36] > 100 µM | [37] 27.3 µM | [38] > 100 µM | [39] 50.9 µM | [40] > 100 µM | [41] > 100 µM | [43] 26.9 µM | [44] 47.4 µM | [45] 75 µM | [46] 31.6 µM | [47] 38.7 µM | [48] 39.4 µM | [49] 53.3 µM | [50] 82.6 µM | [51] 69 µM | [52] > 100 µM | [53] 96.2 µM | [54] > 100 µM
> 100 µM: [55]

From ChEMBL document CHEMBL1201862, “PubChem BioAssay data set” (2004)
